Measured values from patent US10253081B2, “Glucagon analogues” (Zealand Pharma A/S, priority 2012, dated 2019).
Where two headings read alike, the source gives them in different places. Blank lines part the entries; values can stand above or below the compound they belong to. *1 amine or outer side, *2 acyl side, *3 side chain or, on linkers, in order; H or OH if unused. Where a SMILES comes first, the peptide text is derived from it. Side-chain parts run from the residue outwards. The star is where a group is joined. γGlu = O=C(O)[C@H](CCC(=O)[*:2])N[*:1]; Palmitoyl = CCCCCCCCCCCCCCCC(=O)*

Experiments:
[1] = molecular target: T1, human glucagon receptor (Glucagon-R) (Homo sapiens, UniProt P47871); test: Glucagon receptor efficacy assay (cAMP AlphaScreen, CHO cells); format: cell-based; details: Table 1A; CHO cells expressing human Glucagon-R, cAMP; read-out: EC50 hGCGR CHO-K1
T1 construct: expressed in transfected cells
Summary of the method: (§1)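 Stably transfected CHO clones expressing human GLP-1R or glucagon receptor were treated with increasing peptide concentrations for 15 min at room temperature in KRBH containing 0.1 mM IBMX. After lysis, cAMP was quantified by AlphaScreen; EC50 and efficacy relative to GLP-1 or glucagon reference came from curve fitting.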

[2] = molecular target: T2, human glucagon-like peptide 1 receptor (GLP-1R) (Homo sapiens, UniProt P43220); test: GLP-1 receptor efficacy assay (cAMP AlphaScreen, CHO cells); format: cell-based; details: Table 1A; for EC50: CHO cells expressing human GLP-1-R, cAMP, read-out: EC50 hGLP-1R CHO-K1; for Ratio GLP-1/Glucagon: EC50 [GLP-1R]/EC50 [Glucagon-R]
T2 construct: expressed in transfected cells
Summary of the method: as §1

[3] = Pharmacokinetic parameters after subcutaneous and intravenous administration to mice; format: in vivo; details: male, mouse, plasma, 20 nmol/kg, C57Bl/6J mice; for half-life: read-out: Terminal half life (converted); for MRT: read-out: Mean Residence Time
Description: Pharmacokinetic parameters of the test compounds were determined after subcutaneous and intravenous administration to C57Bl/6J mice.
8 week old male C57Bl/6J mice were obtained from Taconic (Denmark) weighing approximately 20-25 g at time of arrival at the test facility. The mice were caged in European standard cages type III with light cycle of 12-hour dark and 12-hour light (lights on 06.00). Both diet, Altromin 1324 (Altromin, Germany), and water was administered ad libitum during the whole experimental period. The 8-11 week animals were imported to the laboratory at least 7 days before the start up of the experimental procedure in order to assure proper acclimatization. After sampling the mice were euthanized by cervical dislocation.
The compounds were first dissolved in 0.096% aqueous ammonia to a nominal concentration of 2 mg/ml, and then diluted to the desired dosing strength (4 μM) in sterile PBS containing 25 mM phosphate buffer, pH 7.4. Subcutaneous and intravenous injections corresponding to 20 nmol/kg were given. The GLP-1-glucagon dual agonists were administered for subcutaneous dosing in the neck region and via a lateral tail vein for intravenous dosing.
Blood samples (250 μl) were collected from the periorbital plexus at time points 0.5, 2, 4, 6, 12, 16, 20, 24 h for subcutaneous and 10, 30 min, 3, 6, 12, 18, 24 h for intravenous administration into ice-chilled K3EDTA tubes and centrifuged for 5 minutes at 4° C. within 20 minutes of sampling. Plasma (>100 μl) was separated to ice-chilled Micronic tubes, immediately frozen, and kept at −70° C. until analysed for plasma concentration for the respective GLP-1-glucagon compound using LC-MS/MS. Individual plasma concentration-time profiles were analysed by a non-compartmental approach in WinNonLin v6.3 (Pharsight inc, Mountain View, Calif., USA), and the resulting pharmacokinetic parameters determined.

T2 sequence (P43220 24-463): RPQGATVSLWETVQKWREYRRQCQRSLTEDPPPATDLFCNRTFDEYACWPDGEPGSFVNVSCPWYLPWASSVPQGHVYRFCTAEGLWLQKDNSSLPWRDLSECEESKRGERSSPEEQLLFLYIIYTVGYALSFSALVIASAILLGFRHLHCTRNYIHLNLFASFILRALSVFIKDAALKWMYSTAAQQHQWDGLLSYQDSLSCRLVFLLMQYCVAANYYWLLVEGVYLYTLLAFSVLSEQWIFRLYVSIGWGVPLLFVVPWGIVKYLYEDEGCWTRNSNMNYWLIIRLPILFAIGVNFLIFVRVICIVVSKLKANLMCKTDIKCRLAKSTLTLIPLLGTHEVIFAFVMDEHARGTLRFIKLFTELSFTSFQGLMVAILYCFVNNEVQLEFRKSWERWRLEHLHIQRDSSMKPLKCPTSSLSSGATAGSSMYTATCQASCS
T1 sequence (P47871 26-477): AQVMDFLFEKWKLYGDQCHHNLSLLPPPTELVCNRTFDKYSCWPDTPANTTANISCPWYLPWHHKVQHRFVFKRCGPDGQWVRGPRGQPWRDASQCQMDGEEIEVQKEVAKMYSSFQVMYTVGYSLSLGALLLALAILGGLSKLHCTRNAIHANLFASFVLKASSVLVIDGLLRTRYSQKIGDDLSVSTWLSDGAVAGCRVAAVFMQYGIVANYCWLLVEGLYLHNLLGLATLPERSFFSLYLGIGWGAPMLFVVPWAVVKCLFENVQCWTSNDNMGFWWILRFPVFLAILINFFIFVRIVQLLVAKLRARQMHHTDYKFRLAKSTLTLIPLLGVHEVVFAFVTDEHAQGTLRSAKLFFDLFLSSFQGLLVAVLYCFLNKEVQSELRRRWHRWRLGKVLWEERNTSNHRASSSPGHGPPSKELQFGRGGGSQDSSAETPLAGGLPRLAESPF

SMILES: CCCCCCCCCCCCCCCC(=O)N[C@@H](CCC(=O)NCCCC[C@H](NC(=O)[C@H](CO)NC(=O)[C@H](CC(=O)O)NC(=O)[C@H](CC(C)C)NC(=O)[C@H](Cc1ccc(O)cc1)NC(=O)[C@H](CCCCN)NC(=O)[C@H](CO)NC(=O)[C@H](Cc1ccc(O)cc1)NC(=O)[C@H](CC(=O)O)NC(=O)[C@H](CO)NC(=O)[C@@H](NC(=O)[C@H](Cc1ccccc1)NC(=O)[C@@H](NC(=O)CNC(=O)[C@H](CCC(N)=O)NC(=O)[C@H](CO)NC(=O)[C@@H](N)Cc1c[nH]cn1)[C@@H](C)O)[C@@H](C)O)C(=O)N[C@@H](C)C(=O)N[C@@H](C)C(=O)N[C@@H](Cc1c[nH]cn1)C(=O)N[C@@H](CC(=O)O)C(=O)N[C@@H](Cc1ccccc1)C(=O)N[C@H](C(=O)N[C@@H](CCC(=O)O)C(=O)N[C@@H](Cc1c[nH]c2ccccc12)C(=O)N[C@@H](CC(C)C)C(=O)N[C@@H](CC(C)C)C(=O)N[C@@H](CO)C(N)=O)C(C)C)C(=O)O [Compound 8, H-HSQGTFTSDYSKYLDS-K(Hexadecanoyl-isoGlu)-AAHDFVEWLLS-NH2] (H-HSQGTFTSDYSKYLDSK([γGlu-Palmitoyl])AAHDFVEWLLS-NH2)
- EC50 [1]: 0.29 nM
- EC50 [2]: 0.41 nM
- Ratio GLP-1/Glucagon [2]: 1.41
- clearance ([3]; IV): 0.128 mL/min/kg
- half-life ([3]; IV): 3.9 h
- Tmax ([3]; SC): 4 h
- bioavailability ([3]; SC): 42%
- MRT ([3]; SC): 8.1 h
- half-life ([3]; SC): 4.1 h

SMILES: CCCCCCCCCCCCCCCC(=O)N[C@@H](CCC(=O)NCCCC[C@H](NC(=O)[C@H](CO)NC(=O)[C@H](CC(=O)O)NC(=O)[C@H](CC(C)C)NC(=O)[C@H](Cc1ccc(O)cc1)NC(=O)[C@H](CCCNC(=N)N)NC(=O)[C@H](CO)NC(=O)[C@H](Cc1ccc(O)cc1)NC(=O)[C@H](CC(=O)O)NC(=O)[C@H](CO)NC(=O)[C@@H](NC(=O)[C@H](Cc1ccccc1)NC(=O)[C@@H](NC(=O)CNC(=O)[C@H](CCC(N)=O)NC(=O)[C@H](CO)NC(=O)[C@@H](N)Cc1c[nH]cn1)[C@@H](C)O)[C@@H](C)O)C(=O)N[C@@H](C)C(=O)N[C@@H](C)C(=O)N[C@@H](Cc1c[nH]cn1)C(=O)N[C@@H](CC(=O)O)C(=O)N[C@@H](Cc1ccccc1)C(=O)N[C@H](C(=O)N[C@@H](CCC(=O)O)C(=O)N[C@@H](Cc1c[nH]c2ccccc12)C(=O)N[C@@H](CC(C)C)C(=O)N[C@@H](CC(C)C)C(=O)N[C@@H](CO)C(=O)N[C@@H](C)C(N)=O)C(C)C)C(=O)O [Compound 12, H-HSQGTFTSDYSRYLDS-K(Hexadecanoyl-isoGlu)-AAHDFVEWLLSA-NH2] (H-HSQGTFTSDYSRYLDSK([γGlu-Palmitoyl])AAHDFVEWLLSA-NH2)
- EC50 [1]: 0.43 nM
- EC50 [2]: 0.37 nM
- Ratio GLP-1/Glucagon [2]: 0.86
- clearance ([3]; IV): 0.225 mL/min/kg
- half-life ([3]; IV): 4.1 h
- Tmax ([3]; SC): 6 h
- bioavailability ([3]; SC): 43%
- MRT ([3]; SC): 8.3 h
- half-life ([3]; SC): 4.3 h

SMILES: CCCCCCCCCCCCCCCC(=O)N[C@@H](CCC(=O)NCCCC[C@H](NC(=O)[C@H](CO)NC(=O)[C@H](CC(=O)O)NC(=O)[C@H](CC(C)C)NC(=O)[C@H](Cc1ccc(O)cc1)NC(=O)[C@H](CCCCN)NC(=O)[C@H](CO)NC(=O)[C@H](Cc1ccc(O)cc1)NC(=O)[C@H](CC(=O)O)NC(=O)[C@H](CO)NC(=O)[C@@H](NC(=O)[C@H](Cc1ccccc1)NC(=O)[C@@H](NC(=O)CNC(=O)[C@H](CCC(N)=O)NC(=O)C(C)(C)NC(=O)[C@@H](N)Cc1c[nH]cn1)[C@@H](C)O)[C@@H](C)O)C(=O)N[C@@H](C)C(=O)N[C@@H](C)C(=O)N[C@@H](Cc1c[nH]cn1)C(=O)N[C@@H](CC(=O)O)C(=O)N[C@@H](Cc1ccccc1)C(=O)N[C@H](C(=O)N[C@@H](CCC(=O)O)C(=O)N[C@@H](Cc1c[nH]c2ccccc12)C(=O)N[C@@H](CC(C)C)C(=O)N[C@@H](CC(C)C)C(=O)N[C@@H](CO)C(=O)N[C@@H](C)C(=O)O)C(C)C)C(=O)O [Compound 13, H-H-Aib-QGTFTSDYSKYLDS-K(Hexadecanoyl-isoGlu)-AAHDFVEWLLSA-OH]
- EC50 [1]: 0.98 nM
- EC50 [2]: 0.51 nM
- Ratio GLP-1/Glucagon [2]: 0.52
- clearance ([3]; IV): 0.148 mL/min/kg
- half-life ([3]; IV): 6.3 h
- Tmax ([3]; SC): 4 h
- bioavailability ([3]; SC): 76%
- MRT ([3]; SC): 14.7 h
- half-life ([3]; SC): 8.6 h

These reach a lower EC50 [1]. Values come first.

- EC50 [1]: 0.25 nM
- EC50 [2]: 0.35 nM
- Ratio GLP-1/Glucagon [2]: 1.40
- clearance ([3]; IV): 0.638 mL/min/kg
- half-life ([3]; IV): 0.9 h
- Tmax ([3]; SC): 2 h
- bioavailability ([3]; SC): 34%
- MRT ([3]; SC): 4.7 h
- half-life ([3]; SC): 2.9 h
SMILES: CCCCCCCCCCCCCCCC(=O)N[C@@H](CCC(=O)NCCCC[C@H](NC(=O)[C@H](CO)NC(=O)[C@H](CC(=O)O)NC(=O)[C@H](CC(C)C)NC(=O)[C@H](Cc1ccc(O)cc1)NC(=O)[C@H](CCCCN)NC(=O)[C@H](CO)NC(=O)[C@H](Cc1ccc(O)cc1)NC(=O)[C@H](CC(=O)O)NC(=O)[C@H](CO)NC(=O)[C@@H](NC(=O)[C@H](Cc1ccccc1)NC(=O)[C@@H](NC(=O)CNC(=O)[C@H](CCC(N)=O)NC(=O)[C@H](CO)NC(=O)[C@@H](N)Cc1c[nH]cn1)[C@@H](C)O)[C@@H](C)O)C(=O)N[C@@H](C)C(=O)N[C@@H](C)C(=O)N[C@@H](Cc1c[nH]cn1)C(=O)N[C@@H](CC(=O)O)C(=O)N[C@@H](Cc1ccccc1)C(=O)N[C@H](C(=O)N[C@@H](CCC(=O)O)C(=O)N[C@@H](Cc1c[nH]c2ccccc12)C(=O)N[C@@H](CC(C)C)C(=O)N[C@@H](CC(C)C)C(=O)N[C@@H](CCCNC(=N)N)C(=O)O)C(C)C)C(=O)O [Compound 9, H-HSQGTFTSDYSKYLDS-K(Hexadecanoyl-isoGlu)-AAHDFVEWLLR-OH] (H-HSQGTFTSDYSKYLDSK([γGlu-Palmitoyl])AAHDFVEWLLR-OH)

- EC50 [1]: 0.23 nM
- EC50 [2]: 0.23 nM
- Ratio GLP-1/Glucagon [2]: 1.00
- clearance ([3]; IV): 0.355 mL/min/kg
- half-life ([3]; IV): 3 h
- Tmax ([3]; SC): 2 h
- bioavailability ([3]; SC): 80%
- MRT ([3]; SC): 6.5 h
- half-life ([3]; SC): 3.7 h
SMILES: CCCCCCCCCCCCCCCC(=O)N[C@@H](CCC(=O)NCCCC[C@H](NC(=O)[C@H](CCC(=O)O)NC(=O)[C@H](CC(=O)O)NC(=O)[C@H](CC(C)C)NC(=O)[C@H](Cc1ccc(O)cc1)NC(=O)[C@H](CCCCN)NC(=O)[C@H](CO)NC(=O)[C@H](Cc1ccc(O)cc1)NC(=O)[C@H](CC(=O)O)NC(=O)[C@H](CO)NC(=O)[C@@H](NC(=O)[C@H](Cc1ccccc1)NC(=O)[C@@H](NC(=O)CNC(=O)[C@H](CCC(N)=O)NC(=O)[C@H](CO)NC(=O)[C@@H](N)Cc1c[nH]cn1)[C@@H](C)O)[C@@H](C)O)C(=O)N[C@@H](C)C(=O)N[C@@H](C)C(=O)N[C@@H](Cc1c[nH]cn1)C(=O)N[C@@H](CCC(=O)O)C(=O)N[C@@H](Cc1ccccc1)C(=O)N[C@H](C(=O)N[C@@H](CCC(=O)O)C(=O)N[C@@H](Cc1c[nH]c2ccccc12)C(=O)N[C@@H](CC(C)C)C(=O)N[C@@H](CCC(=O)O)C(=O)N[C@@H](CO)C(=O)N[C@@H](C)C(N)=O)C(C)C)C(=O)O [Compound 10, H-HSQGTFTSDYSKYLDE-K(Hexadecanoyl-isoGlu)-AAHEFVEWLESA-NH2] (H-HSQGTFTSDYSKYLDEK([γGlu-Palmitoyl])AAHEFVEWLESA-NH2)
